The star is where a group is joined. Myristoyl = CCCCCCCCCCCCCC(=O)*
Experiments:
[1] = system: KHT tumour; experiment: Ex vivo release of calcein in tumour slices after i.v. peptide liposome complex; set-up: species or system C3H mice; settings: 200 μl complex i.v., tumours excised 3 hrs post inoculum, buffer pH 8 changed to pH 5.8; FIG. 11
Experimental: Liposomes encapsulating Calcein (120 mM) and with label DiI (the dye to lipid ratio was around 100 μg dye: 100 mg PC) were used. C3H syngenic mice 8-10 weeks old weighing 20-25 g were used. Subcutaneous tumour was implanted using KHT cells (5×10^6 cells/animal) on the dorsal side after shaving the mice. Typically 200 μl of peptide liposome complex (100 μl of dual dye liposomes+100 μl of peptide 0.1 mg/ml) were administered intravenously per mice and tumours excised 3 hrs post inoculum. The tumour was removed aseptically and kept in PBS pH 8.0 buffer and thin sections (160 μm-200 μm) were cut on the slicing machine, and examined under a fluorescence microscope. The pH of the buffer was modulated by adding 400 μl of NaP buffer pH 5.8 while simultaneously removing 400 μl of pH 8 buffer. Changes in fluorescence intensity were recorded. The state of liposome peptide complex is then determined, whether intact or lysed by measuring fluorescence in tissue slices before-and after incubation in acidic buffer. The increase in fluorescence in the acidic buffer indicates the quantity of liposomes that were still intact and able to respond at the time of sacrifice.

[2] = Cytolytic activity of pH-responsive peptides on calcein liposomes at different pH; settings: liposomes 4 μM lipid; 14 nM peptide 2, 20 nM peptide 7, 45 nM peptide 9; FIG. 4
Experimental: Liposomes encapsulating calcein dye were prepared by an extrusion method (Biochim. Biophys. Acta, 812 (1985) 55). Phophatidylcholine (50 mg) and cholesterol (13.08 mg) which had been dissolved in 4 ml of 50% v/v chloroform methanol solution were evaporated to form a lipid film in a round bottom flask. If it is essential to follow the fate of liposomes a lipohilic-dye such as DiI (50 μg) could be incorporated into the lipid film prior to hydration. The film was then hydrated with 4 ml of 120 mM calcein solution prepared in 10 mM sodium phosphate 20 mM Sodium chloride buffer pH 7.4. Liposomes were formed by 10 extrusion cycles through 0.2 micron or 0.1 um polycarbonate filters using the Liposofast 100 (Avestin) extruder device. The non encapsulated dye was removed by gel filtration on a PD-10 column using iso-osmotic buffer. The total lipid concentration of the liposomes was measured by the Stewart assay and adjusted to 3 mg per ml.
The cytolytic activity of pH-responsive peptides was followed by adding 2 or 3 μl of liposomes to a 2 ml assay volume and continually recording fluorescence. Buffers were made of 10 mM Na phosphate, 140 mM NaCl, 1 mM EDTA, 5 mM HEPES at several different pH values. […] In the experiments 2 ml of 10 mM Na phosphate, 140 mM NaCl, 1 mM EDTA, 5 mM HEPES buffer (at pH values indicated on the figure) containing liposomes (4 μM lipid) and (A) 14 nM peptide 2, (B) 20 nM peptide 7 (C) 45 nM peptide 9. In all cases peptides were added indicated by sharp dip in fluorescence were used. The pH values are as indicated for each trace. […] In general, it is well documented that many proteins including receptors, enzymes and antibodies has pH optimum usually closer to physiological value. On either side of the pH optimum the binding activity is reduced. However in general as activity profile is typically bell shape most proteins would tolerate at least a pH unit shift from optimum. Obviously the closer the results are to pH 7.4 the higher chances their are for efficient binding with target proteins or receptors.

[3] = Liposome-peptide integral complex: pH-triggered calcein release and stability
Description: A fatty acid incorporated on the N-terminal of peptide anchors the sequence with liposomes to form integral complex which can then be used as single stable reagent that can be triggered to release the contents-of the liposomoes when the pH is ideal (i.e physiological 7.4) or acidic (e.g 6.2). In the first instance we prepared the liposome-peptide complex at a predetermined ratio of lipid-to peptide (30:1) in pH 8 buffer using peptide 10. […] The complex between liposomes and peptide was formed by adding peptide to […] of 10 mM NaP containing 140 mM NaCl, 1 mM EDTA, 5 mM Hepes pH 8 buffer, containing 100 μl of calcein encapsulating liposomes. The mixture was incubated for 20 mins to form the complex prior to use. In order to ascertain that the lysis is occurring due to the formation of complex and not as the action of the peptide per se it was essential to purify the liposome-peptide complex. The peptide to lipid ratio in this complex is 1:30. The complex was applied to a Sepharose CL-6B column. Fractions corresponding to liposomes were collected as clearly visible to the eye. Aliquots of these fractions were then tested for lytic activity at acidic and physiological pH values. The key aim was to establish that the peptide is liposome associated and would thus be eluted with liposome fraction in the void volume. We used 100 μl complex (a column purified fraction) and followed the release of Calcein at two different pH values.
FIG. 8A. […] Upper curve pH 5.8. Lower curve pH 7.4.
2 ml buffer (10 mM Na phosphate, 140 mM NaCl, 1 mM EDTA, 5 mM HEPES)+50 μl purified complex. Lipsomes used were 50 nm extruded. Curves top to bottom are pH 6.2, 6.4, 6.7, 7.0, 7.4
Complex 20 μl liposomes+60 μl pH 8 buffer+20 μl peptide (0.1 mg/ml) prepared and used within 2 minutes. 10 μl was added to each of the cuvettes containing 2 ml buffers. Top curve pH 6.2 (triton was added towards the end indicated by sharp dip in fluorescence to check full lysis), the lower curve is at pH 7.4. Samples measured simultaneously.
5 μL of complex in 2 ml of buffer tested 20 minutes after preparation. Upper curve pH 6.2, Lower curve pH 7.4.
5 μL of complex in 2 ml of buffer tested 5 hrs after preparation. Upper curve pH 6.2 and lower curve pH 7.4.
5 μL of complex in 2 ml of buffer tested 24 hrs after preparation curve pH 6.2, Lower curve pH 7.4.

Myr-WEAALAEALAEALAEHLARALAEALEALAA-Amide (Myristoyl-WEAALAEALAEALAEHLARALAEALEALAA-NH2; SMILES CCCCCCCCCCCCCC(=O)N[C@@H](Cc1c[nH]c2ccccc12)C(=O)N[C@@H](CCC(=O)O)C(=O)N[C@@H](C)C(=O)N[C@@H](C)C(=O)N[C@@H](CC(C)C)C(=O)N[C@@H](C)C(=O)N[C@@H](CCC(=O)O)C(=O)N[C@@H](C)C(=O)N[C@@H](CC(C)C)C(=O)N[C@@H](C)C(=O)N[C@@H](CCC(=O)O)C(=O)N[C@@H](C)C(=O)N[C@@H](CC(C)C)C(=O)N[C@@H](C)C(=O)N[C@@H](CCC(=O)O)C(=O)N[C@@H](Cc1c[nH]cn1)C(=O)N[C@@H](CC(C)C)C(=O)N[C@@H](C)C(=O)N[C@@H](CCCNC(=N)N)C(=O)N[C@@H](C)C(=O)N[C@@H](CC(C)C)C(=O)N[C@@H](C)C(=O)N[C@@H](CCC(=O)O)C(=O)N[C@@H](C)C(=O)N[C@@H](CC(C)C)C(=O)N[C@@H](CCC(=O)O)C(=O)N[C@@H](C)C(=O)N[C@@H](CC(C)C)C(=O)N[C@@H](C)C(=O)N[C@@H](C)C(N)=O) [peptide 9]
release of calcein in tumour slices on acidification [1]: able to trigger release of calcein
pH of triggering (pH profile of calcein release from liposomes) [2]: ~7 pH
stability of the complex ([3]; calcein/DiI liposomes, tested 20 minutes, 5 hrs and 24 hrs after preparation, pH 6.2 vs 7.4, FIGS. 8D, E, F): retention of the pH triggering of properties
triggering properties of complex after purification ([3]; peptide to lipid ratio 1:300, pH 6.2 to 7.4, FIG. 8B): triggering properties are retained

Reference: patent publication US7718613B2, “Armed peptides” (priority 2001, dated 2010)
